Columns and labels:
p70 S6 kinase = test: Phosphoprotein array, p70 S6 kinase; type: cell-based; settings: cells treated for 24 hours; PI-3kinase signaling pathway
Protocol: (§1) FIG. 43A-43C. A phosphoprotein array was used to determine which signaling pathways were affected by treatment of cells with SKI-267077. […] A phosphoprotein array (R and D Systems) was used to measure the level of phosphorylation of cellular proteins. Protein phosphorylation was determined according to the manufacturer's instructions.

H3255 = test: [3H]-thymidine incorporation assay, H3255; type: cell-based, human; settings: H3255, mutant EGFR
Protocol: FIGS. 41A-41B. SKI-267077 inhibits DNA synthesis. SKI-267077 was used to elucidate the mechanism by which this agent inhibits cell growth.
[^3H]-thymidine incorporation assay. Cells were seeded in 12-well plates at a density of 100 000 cells/well and treated with inhibitors for 24 hours. H3-thymidine (3 μCi/mL) was then added for 3 hours. Cells were washed twice with PBS, fixed with cold 10% TCA (in PBS) for 30 min then lysed with 0.5% NaOH/0.5% SDS. DNA was scraped from the wells and the amount of H3-thymidine incorporated determined by liquid scintillation counting.

cells = test: Annexin V binding (FACS) apoptosis assay; type: cell-based; settings: 48 hours, FITC-labeled annexin V
Protocol: FIG. 42. SKI-267077 induces apoptosis. Cells were treated for 48 hours with SKI-267077 and then binding of FITC-labeled annexin V to cells determined FACS analysis was used to determine the amount of annexin V-positive cells.

AKT isoforms = test: Phosphoprotein array, AKT; type: cell-based; settings: cells treated for 24 hours; PI-3kinase signaling pathway
Protocol: as §1

H2030 cells = test: Cell cycle analysis (FACS), H2030; type: cell-based, human; settings: 24 hours
Protocol: FIGS. 2A-2B. SKI-267077 induces cell cycle arrest. H2030 cells were treated with SKI-267077 for 24 h. Cell cycle progression was analyzed by FACS analysis. FIG. 2A: Percent of cells in S-phase. FIG. 2B: percent of cells in G1 phase.
Cell cycle analysis. For cell cycle analysis, cells were plated at a density of 500,000 cells per well in 6-well plates. Attached cells were treated with drugs for 24 h. Cells were then collected, washed with PBS and fixed in 70% ethanol for 1 h. For FACS analysis, fixed cells were washed with cold PBS resuspended in PBS containing 200 μg/mL propidium iodide and 0.1% sodium citrate. Flow cytometry was performed on a Becton-Dickinson FACSCalibur flow cytometer and data the processed using FlowJo software.
SKI-267077 induces cell cycle arrest at the G1 phase. Cell cycle progression in the presence of SKI-267077 was determined by FACS analysis of H2030 cells that were treated for 24 hours.

O=c1c(Cl)c(Cl)cnn1-c1ccc(Cl)cc1Cl [compound 267077]
phosphorylation of p70 S6 kinase (p70 S6 kinase): blocked phosphorylation
DNA synthesis (H3255): dose-dependent reduction in DNA synthesis
apoptosis, binding of annexin-V to the cell surface (cells): induction of apoptosis
phosphorylation of AKT isoforms (AKT isoforms): blocked phosphorylation of all three AKT isoforms
percent of cells in the G1 phase (H2030 cells): increase in the percent of cells in the induce G1 phase
percent of cells in the S phase (H2030 cells): reduction of the percent of cells in the S phase
